Results on one molecule are retold here after patent US20250206708A1, “AN OXAZIRIDINE PLATFORM FOR TARGETING FUNCTIONAL ALLOSTERIC METHIONINE SITES” (Novartis AG, priority 2022, published 2025).

pIC50: −log10 of the molar value.

The target in assay [1] is T1, CDK4 (Homo sapiens, UniProt P11802). As to the kind of experiment: Gel-based ABPP competition with Compound 303 probe on isolated CDK4. In kind it is binding. Conditions: Cy3 fluorescence readout. The procedure:
Activity-based protein profiling (ABPP) was performed as follows. CDK4 was diluted in PBS to 50 nM, then 50 μL was added to each well of a 96-well PCR plate. Ligands were dissolved fresh in DMSO to 5 μM, and 1 μL was added so each well contained a unique ligand at the indicated concentration. Wells were mixed and allowed to incubate 1 h at 23° C. […] Excess oxaziridine was quenched with N-acetyl methionine via addition of 1 μL of 10 mM DMSO stock (200 μM final), wells mixed and allowed to incubate 1 h at 23° C. A stock was prepared 1:5 of 12.5 μM DBCO-Cy3 in DMSO: 1.2% SDS/PBS. To each well was added 6 μL of this stock, the wells mixed and allowed to incubate overnight protected from light at 23° C. […] Samples were loaded and separated on precast 4-20% TGX gels and scanned by ChemiDoc MP for measuring in-gel fluorescence. […]
The oxaziridine fragment library from Example 8 was screened for methionine-directed modifiers of CDK4 via a gel-based ABPP platform as described in Example 3, seen in FIG. 7B. […] DBCO-Cy3 was then introduced by strain-promoted click chemistry to provide a fluorescence readout. The samples were subsequently separated via SDS-PAGE and fluorescence signals were normalized via silver stain to triage any covalent ligands that induced general protein aggregation, which would generate a false positive Cy3 signal, as shown in FIG. 5B. […]

For assay [2], the target named is CDK1 (Homo sapiens, UniProt P06493). As to the kind of experiment: Gel-based ABPP, isoform specificity on CDK1. In kind it is binding. Conditions: dose-dependent treatment. The procedure: (§1) Activity-based protein profiling (ABPP) was performed as follows. CDK4 was diluted in PBS to 50 nM, then 50 μL was added to each well of a 96-well PCR plate. Ligands were dissolved fresh in DMSO to 5 μM, and 1 μL was added so each well contained a unique ligand at the indicated concentration. Wells were mixed and allowed to incubate 1 h at 23° C. Ligands were then chased with fresh Compound 301 with 1 μL of 5 μM added to each well (100 nM final), wells mixed and allowed to incubate 1 h at 23° C. Excess oxaziridine was quenched with N-acetyl methionine via addition of 1 μL of 10 mM DMSO stock (200 μM final), wells mixed and allowed to incubate 1 h at 23° C. A stock was prepared 1:5 of 12.5 μM DBCO-Cy3 in DMSO: 1.2% SDS/PBS. To each well was added 6 μL of this stock, the wells mixed and allowed to incubate overnight protected from light at 23° C. The next morning 30 μL of 4×Laemmli's buffer containing 10% BME was added to each well. The plate was sealed and brought to 95° C. for 6 min. Samples were loaded and separated on precast 4-20% TGX gels and scanned by ChemiDoc MP for measuring in-gel fluorescence. After that, the total protein level on the gel was assayed by silver staining according to the manufacturer's protocol and scanned by ChemiDoc MP.
(§2) The isoform specificity was tested with two closely-related congeners, CDK1 and CDK6.

The target of assay [3] is T2, CDK6 (Homo sapiens, UniProt Q00534). As to the kind of experiment: Gel-based ABPP, isoform specificity on CDK6. Format: binding. Particulars: dose-dependent treatment. As to the method: as §1, §2
The target of assay [4] is T2, CDK6. As to the kind of experiment: Shotgun proteomics (MS/MS) modification of purified CDK6. In kind it is binding. Conditions: shotgun proteomics on purified protein.
Assay [5] concerns the target T1, CDK4. As to the kind of experiment: ADP-Glo luciferase-based in vitro activity assay on purified CDK4. In kind it is biochemical. Conditions: Rb (aa 773-928) substrate, read-out: IC50, inhibition of activity of purified CDK4 protein. As to the method: Effects of Compound 148 on in vitro activity of CDK4 were determined via commercially available ADP-Glo assay (Promega; cat no.V6930). Isolated CDK4 was provided by Novartis. Retinoblastoma protein (aa 773-928) was obtained from commercial sources (Millipore Sigma; 12-439). The assay kit protocol was followed as directed, with the addition of a quench step (addition of 1 μL of 25 μM N-Acetyl methionine) after incubation of protein with oxaziridine ligand.
Background: ADP-Glo turns the ADP formed in a reaction into a luminescent signal.

Assay [6] relates to ribociclib-sensitive cell lines. As to the kind of experiment: Cell viability screen across ribociclib-sensitive cell lines. Format: cell-based. Conditions: 500 μM compound. As to the method:
All cells were maintained as a monolayer in exponential growth at 37° C. in a 5% CO2 atmosphere. MCF-7 and HepG2 were maintained in Dulbecco's Modified Eagle Medium (DMEM, Gibco) supplemented with 10% (v/v) fetal bovine serum (FBS, Seradigm). HT-29 and SW-48 were maintained in RPMI 1640 Medium (Gibco) supplemented with 10% FBS.
All cells dosed with oxaziridine were treated using a 2% DMSO/media solution. Oxaziridines were dissolved in DMSO and used the same day as treatment. Media was removed from cells and replaced with fresh media containing oxaziridine in DMSO for a final concentration of 2% DMSO. Control wells were treated with 2% DMSO/media. Cells were incubated at 37° C. in a 5% CO2 atmosphere.
Commercially available Cell Counting Kit-8 Assay (Dojindo) was used to investigate cell viability after treatment with oxaziridines. Cells were plated in 96-well plates (black/clear bottom; Thermo Fisher) and grown to 75% confluency. Media was removed and replaced with media containing 2% DMSO and indicated compound concentration. Cells were allowed to incubate 24 h. To assess viability, media was removed and replaced with 100 μL media containing 10% CCK-8 assay solution. Plates were incubated at 37° C. in a 5% CO2 atmosphere for 1-4 h until an orange color was visible. Viability was quantified via plate reader (monofilter) with absorption at 450 nm. […]

T1 sequence (P11802 whole entry): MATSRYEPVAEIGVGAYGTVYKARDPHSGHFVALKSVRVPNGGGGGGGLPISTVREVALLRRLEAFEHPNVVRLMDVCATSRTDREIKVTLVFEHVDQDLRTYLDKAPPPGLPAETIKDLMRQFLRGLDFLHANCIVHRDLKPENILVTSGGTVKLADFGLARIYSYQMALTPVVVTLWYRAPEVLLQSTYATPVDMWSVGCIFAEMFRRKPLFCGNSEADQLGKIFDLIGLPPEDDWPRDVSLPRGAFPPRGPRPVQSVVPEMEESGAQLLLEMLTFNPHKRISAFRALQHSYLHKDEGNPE
T1 sequence (P24385 whole entry partner): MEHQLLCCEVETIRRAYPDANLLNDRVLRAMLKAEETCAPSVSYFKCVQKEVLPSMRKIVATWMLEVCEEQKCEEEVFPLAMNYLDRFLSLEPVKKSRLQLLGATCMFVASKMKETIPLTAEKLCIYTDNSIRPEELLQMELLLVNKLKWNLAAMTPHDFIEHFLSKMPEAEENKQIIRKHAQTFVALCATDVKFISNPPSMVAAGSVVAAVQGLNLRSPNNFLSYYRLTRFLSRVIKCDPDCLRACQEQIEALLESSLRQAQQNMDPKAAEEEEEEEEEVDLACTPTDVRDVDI
T2 sequence (Q00534 whole entry, canonical isoform): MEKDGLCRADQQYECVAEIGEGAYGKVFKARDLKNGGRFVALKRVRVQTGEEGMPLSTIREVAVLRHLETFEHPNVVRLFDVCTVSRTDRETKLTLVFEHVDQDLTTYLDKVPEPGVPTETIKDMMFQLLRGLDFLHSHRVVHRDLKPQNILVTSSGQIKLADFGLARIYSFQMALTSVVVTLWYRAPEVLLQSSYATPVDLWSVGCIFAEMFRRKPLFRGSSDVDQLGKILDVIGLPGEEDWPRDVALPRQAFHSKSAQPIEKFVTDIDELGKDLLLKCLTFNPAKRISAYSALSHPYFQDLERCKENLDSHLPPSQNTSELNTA
Chain of CDK1 (P06493 whole entry, canonical isoform): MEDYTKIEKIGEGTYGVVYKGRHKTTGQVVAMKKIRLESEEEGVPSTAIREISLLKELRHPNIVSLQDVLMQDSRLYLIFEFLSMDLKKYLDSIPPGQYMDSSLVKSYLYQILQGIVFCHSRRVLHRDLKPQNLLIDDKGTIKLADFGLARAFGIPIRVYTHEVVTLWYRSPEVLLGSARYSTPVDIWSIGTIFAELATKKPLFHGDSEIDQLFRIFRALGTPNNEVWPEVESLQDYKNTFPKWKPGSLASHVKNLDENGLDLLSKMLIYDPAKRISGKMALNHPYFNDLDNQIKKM

A word on the pIC50: it is −log10 of the IC50, conventionally taken in molar units. Turning to `O=C(N1CC2COCC2C1)N1OC1c1ccccc1` (stereo not drawn) [Compound 148], the “competition with Compound 303 probe for CDK4 binding” value in assay [1] is recorded as “competition with the Compound 303 probe for CDK4 binding in a dose-dependent manner”. In assay [2], the “labeling against CDK1 by gel analysis” value is “no dose-dependent labeling”. In addition, the “labeling against CDK6 by gel analysis” value in assay [3] is reported as “no dose-dependent labeling”. In addition, in assay [4], the “modifications on CDK6” value is “No modifications”. Further, the pIC50 in assay [5] was about 6.70. Besides, in assay [6], the “cell viability of ribociclib-sensitive cell lines” value was “decrease cell viability”.
